Patent US20260193255A1, “7-AZAINDOLE COMPOUNDS, PREPARATION METHOD THEREFOR, AND USE THEREOF” (Fudan University, priority 2022, published 2026)

Legend:
[1] = test system: C26 tumor cancer cachexia model, BALB/c mice; experiment: Cancer cachexia animal model, compound 2 (C26 tumor, BALB/c mice, 5 mg/kg ig); type: in vivo, mouse; settings: 5 mg/kg ig daily
Procedure: C26 cells were inoculated in T75 flasks. The culture system was 1640 medium containing 10% FBS with 1% penicillin-streptomycin. The flasks were placed in a 5% CO2, 37° C. environment for expansion culture. The cells were collected by centrifugation at 1000 rpm for 3 mins, and the culture medium was washed away with ice-cold PBS buffer, and a cell suspension of 10 million/ml was prepared. The cell suspension was inoculated into the left and right armpits of BALB/c mice at a concentration of 1 million for tumor development. When the tumor volume increased to 1000 mm^3, the tumor was removed and homogenized with 3 ml of ice saline/g to obtain a tumor tissue suspension. The mice to be inoculated were divided into groups according to their weight, and the cell suspension was inoculated into the left armpit of Balb/c mice at an inoculation volume of 100 μl per mouse. Treatment was started from the day after inoculation. Compound 2 was dissolved in 3% DMSO, 2% Solutol and 95% saline in sequence to form a uniform solution with the required concentration. The solution was prepared and used daily. The dose was 5 mg/kg and the compound was administered by the intragastric (ig) route. The body weight, temperature, tumor size and food intake of mice were monitored daily. […] When the tumor volume of mice in the model group reached 2.0× 103 mm^3 or their body weight decreased by 10%, they were considered to have entered the cachexia stage. The muscle grasp force of the mice's forelimbs was tested at these two stages. […] At the end of the experiment, the mice were killed by cervical dislocation and the gastrocnemius, tibialis anterior, right hind limb and tumor samples were obtained, and the sample weights were measured.
(§1) The method for detecting muscle grasp force was as follows: The muscle grasp force of mice was tested on the 5th day (pre-cachexia stage) and the 22nd day (cachexia stage) of the experiment. The mouse was steadily placed on the YLS-13A Mouse and Rat Grasp Force Tester by using the right hand, so that its forelimbs could tightly grasp the gripping disk, and the gripping disk was stabilized by using the left hand moving forward. When the left hand slowly released the gripping disk, the right hand immediately and slowly pulled the mouse's tail backwards until its forelimbs were separated from the gripping disk. The test was repeated 8 times for each mouse, and the mean value of the 8 measurements was used as the skeletal muscle strength index of each mouse.

mouse myoblasts (C2C12) = experiment: Atrophy of mouse myoblasts (C2C12) induced by C26 cell supernatant, myotube diameter by HE staining; type: cell-based; settings: Mus musculus, 48 hours treatment, C26 supernatant-induced C2C12 myotubes, read-out: Myotube atrophy reversal rate
Procedure: C2C12 cells were inoculated in 24-well plates. The culture system was high-glucose DMEM medium containing 10% FBS with 1% penicillin-streptomycin. The plates were placed in a 5% CO2, 37° C. environment. When the cell growth density reached 50%-60%, the culture system was replaced with high-glucose DMEM culture medium containing 2% HS with 1% penicillin-streptomycin. Fresh 2% HS differentiation medium was replaced every 48 hours, and the cells were differentiated into mature cells on the 5th or 6th day. Additionally, C26 cells were inoculated in T75 flasks. The culture system was high-glucose DMEM medium containing 10% FBS with 1% penicillin-streptomycin. The flasks were placed in a 5% CO2, 37° C. environment. When subculturing, the cells were subcultured at 6 million cells/flask. After culturing in 20 ml of culture medium for 48 hours, the supernatant was collected and centrifuged at 1000 rpm for 3 mins. The supernatant was collected and centrifuged at 4000 rpm for 10 mins to obtain the C26 supernatant. The C26 supernatant and 2% HS differentiation solution were mixed at a ratio of 1:1 (volume ratio) as the muscle atrophy induction solution. Except for the control group in which 2% HS differentiation solution was added, for the other groups, an equivalent amount of muscular atrophy induction solution was added. One group was used as the model group, and the other groups were used as the treatment and experimental groups.
The diameter of myotubes after differentiation of mouse myoblasts (C2C12) was evaluated by using the diameter measurement method. The method for measuring the diameter of myotubes was as follows: after 48 hours of treatment, the myotubes were fixed with a fixative (anhydrous ethanol: formaldehyde: glacial acetic acid (volume ratio)=20:2:1) for more than 1 h and stained. The staining method used in the experiment is hematoxylin-eosin staining, referred to as HE staining for short. Hematoxylin stain is alkaline and positively charged, and it can easily bind to the negatively charged and acidic deoxyribonucleic acid (DNA) in the cell nucleus through ionic bonds to stain it blue; eosin is an acidic dye that dissociates into negatively charged anions in water, and it can easily bind to the positively charged amino groups of proteins in the cytoplasm to stain it red. The stained cells were placed under a high-power microscope to take pictures (magnification: 200 times), and the diameter of myotube cells was statistically analyzed using image J software. The muscle atrophy reversal rate was calculated according to the following formula: Muscle atrophy reversal rate=(average value of myotubes in the treatment group-average value of myotubes in the model group)/(average value of myotubes in the control group-average value of myotubes in the model group)×100%

ActRIIB = ActRIIB (Homo sapiens, UniProt Q13705); experiment: ActRIIB inhibitory activity, ADP-Glo assay kit; type: biochemical; settings: ATP 25 μM, substrate 0.1 mg/mL, ActRIIB 20.0 ng/μL
ActRIIB, sequence (Q13705 19-512): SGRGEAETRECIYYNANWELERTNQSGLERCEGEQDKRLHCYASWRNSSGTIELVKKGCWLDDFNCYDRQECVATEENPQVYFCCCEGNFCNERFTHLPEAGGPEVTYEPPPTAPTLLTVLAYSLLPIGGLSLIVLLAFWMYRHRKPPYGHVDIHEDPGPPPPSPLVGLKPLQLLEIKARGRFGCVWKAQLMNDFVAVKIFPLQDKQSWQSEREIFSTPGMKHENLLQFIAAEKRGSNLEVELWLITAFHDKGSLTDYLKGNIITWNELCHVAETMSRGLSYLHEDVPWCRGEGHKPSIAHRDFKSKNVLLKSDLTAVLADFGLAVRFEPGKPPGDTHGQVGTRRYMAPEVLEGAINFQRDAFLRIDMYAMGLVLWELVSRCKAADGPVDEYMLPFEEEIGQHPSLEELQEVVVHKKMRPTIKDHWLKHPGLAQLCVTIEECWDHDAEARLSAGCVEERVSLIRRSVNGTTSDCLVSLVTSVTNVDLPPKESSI
Procedure: The ATP and substrate concentrations recommended by the ADP-Glo™ assay kit were used, which were 25 μM and 0.1 mg/mL, respectively, and a series of isocratic final ActRIIB concentrations were set up, which were 0, 0.47, 0.94, 1.88, 3.75, 7.5, 15, 30, and 60 ng/μL, respectively. According to the […] values obtained in the experiment, an ActRIIB concentration titration curve was drawn. The ActRIIB concentrations corresponding to the ratio of the signal value to the background value (i.e., signal-to-background ratio, SBR) in the range of 5-10 times are suitable for screening compounds for inhibition of ActRIIB activity. From the ActRIIB concentration titration curve, the final ActRIIB concentrations corresponding to SB5 and SB10 were calculated to be 14.9 and 23.7 ng/μL, respectively. Finally, a final concentration of 20.0 ng/μL was selected as the experimental concentration for screening compounds for their inhibitory activity against ActRIIB. The inhibitory efficiency of 7-azaindole compounds on ActRIIB was detected at concentrations of 0.1, 1, 10, and 100 nM, respectively.

[2] = test system: C26 tumor cancer cachexia model, BALB/c mice; experiment: Cancer cachexia animal model, compounds 3 and 10 (C26 tumor, BALB/c mice, 10 mg/kg ip); type: in vivo, mouse; settings: 10 mg/kg ip daily; for Cross-sectional area of gastrocnemius fibers: H&E sections; for Muscle grasp force: p<0.05
Procedure: C26 cells were inoculated in T75 flasks. The culture system was 1640 medium containing 10% FBS with 1% penicillin-streptomycin. The flasks were placed in a 5% CO2, 37° C. environment for expansion culture. The cells were collected by centrifugation at 1000 rpm for 3 mins, and the culture medium was washed away with ice-cold PBS buffer, and a cell suspension of 10 million/ml was prepared. The cell suspension was inoculated into the left and right armpits of BALB/c mice at a concentration of 1 million for tumor development. When the tumor volume increased to 1000 mm^3, the tumor was removed and homogenized with 3 ml of ice saline/g to obtain a tumor tissue suspension. The mice to be inoculated were divided into groups according to their weight, and the cell suspension was inoculated into the left armpit of BALB/c mice at an inoculation volume of 100 μl per mouse. Treatment was started from the day after inoculation. Compounds 3 and 10 were dissolved in 3% DMSO, 2% Solutol and 95% saline in sequence to form a uniform solution with the required concentration. The solution was prepared and used daily. The dose was 10 mg/kg and the compound was administered by intraperitoneal injection (ip). The body weight, temperature, tumor size and food intake of mice were monitored daily. […] In the middle stage of the experiment, the weight of the mice in the model group began to decrease, which was considered to have entered the mid-cachexia stage. When the tumor volume of the mice in the model group reached 2.0× 103 mm^3 or their body weight decreased by 10%, they were considered to have entered the late-cachexia stage. The muscle grasp force of the mice's forelimbs was tested at these three stages. At the end of the experiment, the mice were killed by cervical dislocation and the gastrocnemius, tibialis anterior, right hind limb and tumor samples were obtained, and the sample weights were measured. Gastrocnemius tissue of appropriate size was obtained, and H&E stained tissue sections were prepared through processes such as fixation, embedding, slicing, staining. At least 10 fields of view were randomly selected for slices of different groups for photographing, and the cross-sectional areas of all muscle fibers in the photographs were measured and statistically analyzed.
as §1, with “3rd” for “5th”, “(pre-cachexia stage), the 11th day (mid-cachexia” for “(pre-cachexia”, “16th” for “22nd”, “(late-cachexia” for “(cachexia”

Row | Structure (SMILES) | Average accumulative food intake vs C26 tumor model group [1] | Right hind limb weight (skeletal muscle atrophy) [1] | Tumor volume vs C26 tumor model group [1] | Muscle grasp force ([1]; cachexia stage, p=0.06) | Gastrocnemius mass (gastrocnemius atrophy) ([1]; p<0.05) | Tibialis anterior mass (tibialis anterior atrophy) ([1]; p<0.05) | Weight loss (tumor-bearing and tumor-free body weight) vs C26 tumor model group ([1]; p<0.05 at end of experiment) | inhibition at 1.25 µM (mouse myoblasts (C2C12)) | inhibition at 2.5 µM (mouse myoblasts (C2C12)) | inhibition at 5 µM (mouse myoblasts (C2C12)) | IC50 (ActRIIB) | Average accumulative food intake vs C26 tumor model group [2] | Gastrocnemius atrophy (muscle mass) [2] | Right hind limb weight (skeletal muscle atrophy) [2] | Tibialis anterior atrophy (muscle mass) [2] | Tumor volume vs C26 tumor model group [2] | Weight loss (tumor-bearing and tumor-free body weight) vs C26 tumor model group [2] | Cross-sectional area of gastrocnemius fibers [2] | Muscle grasp force [2]
1 | CN1CCN(c2ccc(-c3cnc4[nH]cc(-c5cc[nH]n5)c4c3)cc2)CC1 [Compound 2, 3-(1H-pyrazol-3-yl)-5-[4-(4-methylpiperazin-1-yl)phenyl]-1H-pyrrolo[2,3-b]pyridine] | slightly higher than that in the C26 tumor model group | improve skeletal muscle atrophy in cachectic mice to a certain extent | slightly reduced compared with the C26 tumor model group, but there was no significant difference | significantly enhance the muscle grasp force of cachexia mice | significantly alleviate the gastrocnemius atrophy in cachectic mice | significantly alleviate the tibialis anterior atrophy in cachectic mice | significantly alleviate the weight loss of mice | 69.2% | 97.6% | 131% | 1.8 nM | – | – | – | – | – | – | – | –
2 | CN1CCN(c2ccc(-c3cnc4[nH]cc(-c5ccc6[nH]ccc6c5)c4c3)cc2)CC1 [Compound 3, 3-(1H-indol-5-yl)-5-[4-(4-methylpiperazin-1-yl)phenyl]-1H-pyrrolo[2,3-b]pyridine] | – | – | – | – | – | – | – | – | 90.9% | – | 1.1 nM | slightly higher than that in the C26 tumor model group | cannot significantly alleviate the gastrocnemius atrophy in cachectic mice | improve skeletal muscle atrophy in cachectic mice to a certain extent | cannot significantly alleviate the tibialis anterior atrophy in cachectic mice | slightly reduced compared with the C26 tumor model group, but there was no significant difference | alleviate the weight loss of mice to some extent | significantly alleviate the reduction in the cross-sectional area of the gastrocnemius in cachectic mice | significantly enhance the muscle grasp force of cachexia mice
3 | c1cc(-c2c[nH]c3ncc(-c4ccc(OCCN5CCOCC5)cc4)cc23)n[nH]1 [Compound 10, 3-(1H-pyrazol-3-yl)-5-(4-[[2-(1,4-oxazacyclohexan-4-yl)ethyl]oxy]phenyl)-1H-pyrrolo[2,3-b]pyridine] | – | – | – | – | – | – | – | 42.4% | 58.9% | 100% | 4 nM | slightly higher than that in the C26 tumor model group | cannot significantly alleviate the gastrocnemius atrophy in cachectic mice | improve skeletal muscle atrophy in cachectic mice to a certain extent | cannot significantly alleviate the tibialis anterior atrophy in cachectic mice | slightly reduced compared with the C26 tumor model group, but there was no significant difference | significantly alleviate the weight loss of mice | significantly alleviate the reduction in the cross-sectional area of the gastrocnemius in cachectic mice | significantly enhance the muscle grasp force of cachexia mice
